The target of this assay is flavodoxin II (apoflavodoxin) (Azotobacter vinelandii, UniProt P00324, C70A). The assay is described as follows: FMN fluorescence increase on dilution of holoprotein. It counts as binding.

Experimental findings from paper PMC3432467 (2012) are described below.

flavodoxin II (apoflavodoxin), sequence (P00324 2-180 C70A): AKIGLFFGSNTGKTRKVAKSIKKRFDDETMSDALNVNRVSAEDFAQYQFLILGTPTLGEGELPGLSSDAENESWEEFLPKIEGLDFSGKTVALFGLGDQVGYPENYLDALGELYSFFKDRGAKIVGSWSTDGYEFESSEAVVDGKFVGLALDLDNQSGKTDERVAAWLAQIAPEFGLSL

In turn, `Cc1cc2nc3c(=O)[nH]c(=O)nc-3n(C[C@H](O)[C@H](O)[C@H](O)COP(=O)(O)O)c2cc1C` [flavin mononucleotide] registered a dissociation constant Kd of 3.82 pM.

What is called Kd is the constant that tells how readily two partners part at equilibrium. Low values mean tighter binding, high ones weaker binding.
